“Also recorded” adds a separate entry of the source. Like-named read-outs stand apart in the source and are kept apart here.
Tests used:
[1] = cited from earlier work
[2] = Safety and tolerability, ketoconazole study; assay type: in vivo, human
Protocol: (§1) Safety and tolerability of ticagrelor alone and in the presence of diltiazem or ketoconazole were evaluated by assessment of adverse events (AEs), vital signs, electrocardiographic (ECG), physical examination, and laboratory parameters (clinical chemistry, hematology, and urinalysis) throughout the studies.

[3] = test system: P-glycoprotein; settings: ref 18 (AstraZeneca, data on file); cited from earlier work
[4] = design: method as in PMID 19717846; settings: ticagrelor + aspirin compared with clopidogrel + aspirin; patients with ACS; cited from earlier work
[5] = cited from earlier work; remark: listed apart in the source
[6] = design: method as in PMID 20091161; settings: single oral dose of ticagrelor 100 mg; healthy volunteers n = 9; cited from earlier work
[7] = Ticagrelor-diltiazem interaction study: pharmacokinetic parameters of ticagrelor and AR-C124910XX; settings: for Cmax: po
Protocol: (§2) Both studies were single-center, randomized, open-label studies with a two-period, in-patient, crossover design. For both studies, a low non-loading dose of ticagrelor (i.e., a single oral dose of 90 mg) was selected, so if an interaction occurred between ticagrelor and the CYP3A4 inhibitor, then the increase in ticagrelor plasma concentrations would minimize any safety issues. […] The approved dosing regimen of ticagrelor is 180 mg loading dose followed by 90 mg twice daily thereafter3,4.
(§3) Figure 1 depicts the overall study design for both studies. At the start of each study, volunteers were randomized to one of two treatments (A or B). After the washout period, volunteers received the alternate dosing regimen. On the scheduled day, ticagrelor was co-administered with the CYP3A4 inhibitor in the morning after fasting for ≥10 hours followed by a further fast for ≥4 hours. Water was permitted ad libitum throughout each period except for 2 hours before and after ticagrelor administration.
(§4) The limits of quantification (LOQ) for ticagrelor and AR-C124910XX were […], respectively28.
(§5) Plasma concentration–time data were used to calculate Cmax, time to maximum concentration (tmax), AUC, and the terminal elimination half-life (t½). The latter was calculated as 0.693/λz, where λz is the terminal phase elimination rate constant, derived by least-squares regression analysis of the plasma concentration–time data obtained over the terminal log-linear phase. AUC was calculated using the linear trapezoidal method and extrapolated to infinity. AR-C124910XX:ticagrelor ratios for Cmax and AUC were calculated.
(§6) Statistical analyses were conducted using SAS version 8 (SAS Institute, Cary, North Carolina, USA). Pharmacokinetic parameters were summarized by descriptive statistics. AUC and Cmax values for ticagrelor and AR-C124910XX were analyzed, following log-transformation, by analysis of variance with terms for treatment, period, and sequence, and the volunteer within sequence was included as a random effect. After exponentiation, geometric least square mean point estimates and 90% CIs for the ratio ticagrelor + CYP3A4 inhibitor/ticagrelor alone were calculated. The pre-specified limits for the 90% CI values indicating no interaction between ticagrelor and either CYP3A4 inhibitor were 0.7–1.43.

[8] = test system: CYP3A; design: method as in PMID 21177984; settings: cited from earlier work; for Inhibition of CYP3A activity in vitro: in words
[9] = Safety and tolerability, diltiazem study; assay type: in vivo, human
Protocol: as §1

[10] = design: method as in PMID 16476694; settings: 28 days, cited from earlier work
[11] = Ticagrelor-ketoconazole interaction study: pharmacokinetic parameters of ticagrelor and AR-C124910XX; settings: for Cmax: po
Protocol: as §2, §3, §4, §5, §6

[12] = design: method as in PMID 20551239, PMID 20091161, PMID 20642549, PMID 16476694, PMID 17980251; settings: cited from earlier work
[13] = test system: platelet aggregation; design: method as in AstraZeneca, data on file; settings: ref AstraZeneca, data on file; cited from earlier work
[14] = Effect of ticagrelor on diltiazem pharmacokinetic parameters; assay type: in vivo, human; settings: for Tmax: human, plasma, read-out: Median tmax (range); for Effect of ticagrelor on pharmacokinetic parameters: in words
[15] = Effect of ticagrelor on ketoconazole steady-state plasma concentrations; assay type: in vivo, human; settings: for Plasma concentration, mean (% CV; range): ketoconazole 200 mg twice daily
Protocol: as §2, §4, §5

[16] = test system: CYP3A; settings: cited from earlier work
[17] = single dose 900 mg, healthy volunteers n = 6
[18] = diltiazem co-administration vs ticagrelor alone
[19] = ticagrelor + diltiazem/ticagrelor alone
[20] = ketoconazole co-administration vs ticagrelor alone
[21] = ticagrelor + ketoconazole/ticagrelor alone

For `CCCSc1nc(N[C@@H]2C[C@H]2c2ccc(F)c(F)c2)c2nnn([C@@H]3C[C@H](OCCO)[C@@H](O)[C@H]3O)c2n1` [Ticagrelor], the “Total bleeding events: number of events (Kaplan–Meier event rates)” value (from here on “Total bleeding events: number of events”) ([1]; 90 mg twice daily, through week 4) is listed as 32 (9.8), the “Total bleeding events: number of events” value ([1]; 90 mg twice daily, through week 12) is listed as 34 (10.9) and the “Mean AUC ± SD” value ([1]; 90 mg twice daily, week 4) is listed as 4762 ± 2443 ng·h/mL. The “Total bleeding events: number of events” value ([1]; 180 mg twice daily, through week 4) was 25 (8.0), the “Total bleeding events: number of events” value ([1]; 180 mg twice daily, through week 12) was 33 (11.4) and the “Mean AUC ± SD” value ([1]; 180 mg twice daily, week 4) was 13,198 ± 4982 ng·h/mL. The “Inhibition of platelet aggregation (IPA)” value ([1]; 180 mg vs 90 mg twice daily) was “dose-dependent increase”, the “Increase in ticagrelor exposure” value ([1]; 180 mg vs 90 mg twice daily, week 4) was 277% and the AEs ([2]; in vivo) was “five AEs”. The “Deaths or serious AEs” value ([2]; ketoconazole study) was “No deaths or serious AEs”, the P-glycoprotein substrate status [3] was “substrate” and the “Rate of myocardial infarction/stroke/death from vascular causes” value [4] was “significantly reduced”. The “Maximum tolerated single dose” value ([5]; healthy volunteers) was 900 mg, the “AUC, mean [% CV]” value [5, 17] was 39,153 [38] ng·h/mL and the “Bleeding-related AEs” value [5, 17] was “no bleeding-related AEs”. The “Cmax, mean [% CV]” value [5, 17] was 5153 [42] ng/mL, the “AUC, mean ± standard deviation” value [6] was 3683 ± 753 ng·h/mL and the “Increase in AUC” value [7, 18] was 174%. The “Increase in Cmax” value [7, 18] was 69%, the Increase in half-life [7, 18] was 96% and the AUC ([7]; human, plasma, oral, 90 mg) was 3700 ng·h/mL. The Tmax ([7]; human, plasma, oral, 90 mg) was 2 h, the half-life ([7]; human, plasma, oral, 90 mg) was 8.3 h and the Cmax ([7]; human, plasma, 90 mg) was 519 ng/mL. The “Effect of diltiazem on median tmax” value ([7]; in words) was “unaffected”, the “AUC GLS mean ratio: point estimate (90% CI)” value [7, 19] was 2.74 (2.40–3.13) and the “Cmax GLS mean ratio: point estimate (90% CI)” value [7, 19] was 1.69 (1.47–1.95). The “Metabolism by CYP3A” value ([8]; human liver microsomes / in vitro) was “principally metabolized by CYP3A; also recorded: substrate”, the “Inhibition of CYP3A activity in vitro” value [8] was “weak-to-moderate inhibitor” and the “Inhibition of CYP3A activity in vitro” value ([8]; listed as ticagrelor) was “weak inhibitor”. For the same compound, the “Deaths or serious AEs” value ([9]; diltiazem study) was “No deaths or serious AEs”, the Bleeding events ([9]; in vivo) was “No such events” and the AEs reported ([9]; in vivo, po) was “No AEs”. For the same compound, the “Mean AUC” value ([10]; 100 mg ticagrelor twice daily, CV 45%) was 5337 ng·h/mL, the “Mean AUC” value ([10]; 200 mg ticagrelor twice daily, CV 39%) was 15,104 ng·h/mL and the Increase in exposure ([10]; 200 mg vs 100 mg twice daily) was 283%. For the same compound, the “Increase in AUC” value ([11]; co-administration of ketoconazole) was at least 5 fold, the AUC ([11]; human, plasma, oral, 90 mg) was 3640 ng·h/mL and the Tmax ([11]; human, plasma, oral, 90 mg) was 2 h. For the same compound, the half-life ([11]; human, plasma, oral, 90 mg) was 7.1 h, the Cmax ([11]; human, plasma, 90 mg) was 654 ng/mL and the “Increase in AUC” value [11, 20] was 632%. For the same compound, the “Increase in Cmax” value [11, 20] was 135%, the “Half-life increased to (relative to ticagrelor alone)” value ([11]; presence of ketoconazole) was “approximately 362%” and the “AUC GLS mean ratio: point estimate (90% CI)” value [11, 21] was 7.32 (6.43–8.34). The “Cmax GLS mean ratio: point estimate (90% CI)” value [11, 21] was 2.35 (2.13–2.60).
For `CCCSc1nc(N[C@@H]2C[C@H]2c2ccc(F)c(F)c2)c2nnn([C@@H]3C[C@H](O)[C@@H](O)[C@H]3O)c2n1` [AR-C124910XX], the “Metabolite level as share of the levels of ticagrelor” value [12] is given as 30–40%, the “Potency in inhibiting platelet aggregation relative to ticagrelor” value [13] is given as “approximately equipotent” and the “AUC, mean ± standard deviation” value [6] is given as 1460 ± 408 ng·h/mL. For the same compound, the “Metabolite:parent AUC ratio” value ([7]; human, in vivo) was 0.4 (39), the “Metabolite:parent Cmax ratio” value ([7]; human, in vivo) was 0.3 (36) and the AUC ([7]; human, in vivo, 90 mg) was 1630 (29) ng·h/mL. For the same compound, the Tmax ([7]; human, in vivo, 90 mg) was 3.0 (2.0–4.0) h, the t½ ([7]; human, in vivo, 90 mg) was 8.4 (1.3) h and the Cmax ([7]; human, in vivo) was 173 (38) ng/mL. The “Metabolite:parent AUC ratio” value ([11]; human, in vivo) was 0.49 (24), the “Metabolite:parent Cmax ratio” value ([11]; human, in vivo) was 0.32 (22) and the AUC ([11]; human, in vivo, 90 mg) was 1769 (28) ng·h/mL. The Tmax ([11]; human, in vivo, 90 mg) was 2.0 (2.0–4.0) h, the t½ ([11]; human, in vivo, 90 mg) was 8.0 (6.3–16.7) h and the Cmax ([11]; human, in vivo) was 207 (29) ng/mL.
For `COc1ccc([C@@H]2Sc3ccccc3N(CCN(C)C)C(=O)[C@@H]2OC(C)=O)cc1` [diltiazem, Diltiazem], the Tmax ([14]; diltiazem + ticagrelor) was 10 h, the Tmax ([14]; diltiazem alone) was 8 h and the “Effect of ticagrelor on pharmacokinetic parameters” value [14] was “no effect; also recorded: did not affect”. The “Effect of ticagrelor on pharmacokinetic parameters” value ([14]; listed as Diltiazem) was “not significantly affected”, the “Abnormal ECG evaluations of first-degree atria-ventricular block” value ([9]; in vivo) was “two volunteers” and the “Systolic and diastolic blood pressure compared to baseline” value ([9]; in vivo) was “marginal decrease”.
With `CC(=O)N1CCN(c2ccc(OCC3COC(Cn4ccnc4)(c4ccc(Cl)cc4Cl)O3)cc2)CC1` (stereo not drawn) [ketoconazole] the “Effect of ticagrelor on steady-state plasma concentrations / pharmacokinetic parameters” value ([15]; in words) was “not significantly affected; also recorded: did not affect”, the “Plasma concentration, mean (% CV; range)” value ([15]; 12 hours post-dosing with ticagrelor on day 4) was 1271 (84;334–4150) ng/mL and the “Plasma concentration, mean (% CV; range)” value ([15]; pre-dosing on day 4, absence of ticagrelor) was 1410 (73; 396–3540) ng/mL. For the same compound, the CYP3A substrate status [16] was “substrates for CYP3A” and the “Classification as CYP3A inhibitor” value [16] was “strong CYP3A inhibitor”.

— PMC4937655 (Journal of Drug Assessment, 2013)
